Patent US5425935A, “Imaging of infections” (British Technology Group Limited, priority 1991, dated 1995)

Key:
[1] = tested on: Escherichia coli (EC); assay: Take up of Tc-99m complexes by Escherichia coli (EC), percentage radionuclide retained; assay type: cell-based; conditions: for percent radionuclide retained in the microorganism: 4 hours' incubation, purified complexes
[2] = tested on: Pseudomonas aboubinoba (PA); assay: Take up of Tc-99m complexes by Pseudomonas aboubinoba (PA), percentage radionuclide retained; assay type: cell-based; conditions: for percent radionuclide retained in the microorganism: 4 hours' incubation, purified complexes
[3] = tested on: Staphylococcus aureus (SA); assay: Take up of Tc-99m complexes by Staphylococcus aureus (SA), percentage radionuclide retained; assay type: cell-based; conditions: for percent radionuclide retained in the microorganism: 4 hours' incubation, purified complexes
[4] = Extent of complexation with Tc-99m prior to purification; assay type: physicochemical
Procedure: A further sample of Tc-99m-CIP complex was obtained as generally described in Example 1. Samples of Tc-99m complexed ofloxacin (obtained in powder form from Hoechst) and norfloxacin (obtained in powder form from Merck Sharpe & Dohme) were obtained as described for ciprofloxacin. Prior to purification, it was determined that the extent of complexation percent was as follows: […]

[5] = 2 hr. incubation, not further purified
[6] = 4 hr. incubation, not further purified
[7] = 21 hr. incubation, CIP not further purified

CC1COc2c(N3CCN(C)CC3)c(F)cc3c(=O)c(C(=O)O)cn1c23 (stereo not drawn) [ofloxacin]
percent radionuclide retained in the microorganism [1]: 77.95%
percent radionuclide retained in the microorganism [2]: 79.39%
percent radionuclide retained in the microorganism [3]: 76.94%
extent of complexation percent [4]: 88.5%

CCn1cc(C(=O)O)c(=O)c2cc(F)c(N3CCNCC3)cc21 [norfloxacin]
percent radionuclide retained in the microorganism [1]: 48.28%
percent radionuclide retained in the microorganism [2]: 44.53%
percent radionuclide retained in the microorganism [3]: 37.86%
extent of complexation percent [4]: 76.5%

O=C(O)c1cn(C2CC2)c2cc(N3CCNCC3)c(F)cc2c1=O [Tc-99m-ciprofloxacin, metal not drawn]
percentage radionuclide retained in the microorganisms [1, 5]: 15.78 percentage
percent radionuclide retained in the microorganism [1]: 43.89%
percentage radionuclide retained in the microorganisms [1, 6]: 11.72 percentage
percentage radionuclide retained in the microorganisms [1, 7]: 12.90 percentage
percentage radionuclide retained in the microorganisms [2, 5]: 24.14 percentage
percent radionuclide retained in the microorganism [2]: 50.20%
percentage radionuclide retained in the microorganisms [2, 6]: 16.67 percentage
percentage radionuclide retained in the microorganisms [2, 7]: 21.32 percentage
percentage radionuclide retained in the microorganisms [3, 5]: 17.24 percentage
percent radionuclide retained in the microorganism [3]: 58.47%
percentage radionuclide retained in the microorganisms [3, 6]: 14.63 percentage
percentage radionuclide retained in the microorganisms [3, 7]: 15.08 percentage
extent of complexation percent [4]: 51.7%
